Data as given in US20150224089A1, “COMBINATIONS OF IKKi/TBK1 INHIBITORS WITH BETA ADRENERGIC AGONISTS OR SYMPATHETIC NERVOUS SYSTEM ACTIVATORS” (THE REGENTS OF THE UNIVERSITY OF MICHIGAN, priority 2014, published 2015).

Tested on: 3T3-L1 adipocytes
Assay: Glycerol release (lipolysis) from 3T3-L1 adipocytes
Format: cell-based
Details: TNFα for 24 hr, different concentrations; 10 μM ISO or 50 μM FSK
Procedure: (A) Fold increase in Ucp1 expression in 3T3-L1 adipocytes expressing empty vector, Flag-IKKε, or Flag-IKKε K38A following treatment with or without 10 μM ISO (black bars) or 10 μM CL-316,243 (CL, gray bars) for 4 hr. (B) Glycerol release from 3T3-L1 adipocytes expressing empty vector (white bars), Flag-IKKε (black bars), or Flag-IKKε K38A (gray bars) treated with or without 10 μM ISO or 10 μM CL. (C) Immunoblots of whole cell lysates from FIG. 1B. Results were replicated in triplicate. D.E. stands for dark exposure and L.E. stands for light exposure. (D) Immunoblots of whole cell lysates from 3T3-L1 adipocytes expressing empty vector or Flag-IKKε treated with or without 50 μM FSK for 15 min. (E) cAMP levels from 3T3-L1 adipocytes expressing empty vector, Flag-IKKε, or Flag-IKKε K38A treated with or without 10 μM ISO or 50 μM FSK for 15 min.
(A) Glycerol release from 3T3-L1 adipocytes treated with or without different concentrations of TNFα as indicated for 24 hr followed by treatment with or without 10 μM ISO or 50 μM FSK. (B) cAMP levels from 3T3-L1 adipocytes treated with or without 100 ng/ml TNFα for 24 hr followed by treatment with or without 10 μM ISO or 50 μM FSK in the presence or absence of pretreatment of 50 μM Amlexanox (Am). (C) cAMP levels from 3T3-L1 adipocytes treated with or without 100 ng/ml TNFα for 24 hr followed by treatment with or without 50 μM FSK in the presence or absence of pretreatment of 1 μM CAY10576 (CAY). (D) Immunoblots of whole cell lysates from 3T3-L1 adipocytes treated with or without different concentrations of TNFα as same as FIG. 2A for 24 hr followed by treatment with or without 10 μM ISO or 50 μM FSK. Results were replicated in multiple experiments. ‘[’ indicates total HSL. ‘n.s.’ represents non-specific band. Arrow indicates CGI-58. (E) Immunoblots of whole cell lysates from 3T3-L1 adipocytes treated with or without 50 ng/ml TNFα or 100 μg/ml poly (I:C) for 24 hr followed by treatment with or without 10 μM ISO for 15 min in the presence or absence of pretreatment with increasing concentrations (0, 10, 50, and 200 μM) of amlexanox for 30 min.
The obesity-dependent increase was modeled in the noncanonical IKKs by overexpressing IKKε in 3T3-L1 adipocytes, followed by assay of glycerol release in response to ISO or CL-316,243. […] Overexpression of TBK1 reduced phosphorylation of HSL in response to isoproterenol or the adenylyl cyclase activator, forskolin (FIG. 1). Identical results were obtained when IKKε was overexpressed in 3T3-L1 adipocytes stimulated with forskolin (FIG. 1D), as detected by western blotting with an anti-phospho-PKA substrate motif antibody. […]

Substance: TNFα
- glycerol release in response to isoproterenol and forskolin: decreased glycerol release
